Patent US9273057B2 (Bristol-Myers Squibb Company, priority 2012, dated 2016)
pIC50: −log10 of the molar value.

Molecular target: CK2A1 (CK2α/β) (Homo sapiens, UniProt P68400)
Assay: CK2 kinase assay, CK2A1 (CK2α/β)
Type: biochemical
Conditions: Table A; read-out: CK2A1 (CK2α/β) (IC50)

Sequence of CK2A1 (CK2α/β) (P68400 whole entry, species assumed): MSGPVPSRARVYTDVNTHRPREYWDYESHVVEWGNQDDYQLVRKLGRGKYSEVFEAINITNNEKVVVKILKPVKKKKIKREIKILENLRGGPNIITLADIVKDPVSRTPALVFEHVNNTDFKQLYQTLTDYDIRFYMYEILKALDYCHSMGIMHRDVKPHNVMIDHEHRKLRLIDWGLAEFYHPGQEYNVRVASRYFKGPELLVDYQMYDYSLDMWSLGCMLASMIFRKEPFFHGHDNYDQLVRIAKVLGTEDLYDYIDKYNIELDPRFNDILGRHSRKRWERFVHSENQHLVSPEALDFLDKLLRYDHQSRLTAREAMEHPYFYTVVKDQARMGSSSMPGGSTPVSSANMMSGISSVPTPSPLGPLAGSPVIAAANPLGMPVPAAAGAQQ
Sequence of CK2A1 (CK2α/β) (P67870 whole entry partner, species assumed): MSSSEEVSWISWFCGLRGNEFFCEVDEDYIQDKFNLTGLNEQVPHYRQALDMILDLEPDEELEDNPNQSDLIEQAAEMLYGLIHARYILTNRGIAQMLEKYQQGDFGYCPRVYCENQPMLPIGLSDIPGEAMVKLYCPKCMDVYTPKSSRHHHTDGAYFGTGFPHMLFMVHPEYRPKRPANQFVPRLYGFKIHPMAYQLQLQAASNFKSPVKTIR

SMILES | pIC50
CCNc1nc(Nc2cc(C#N)cc(N3CC[C@@H](NC(=O)OC)C(NCC(C)(C)O)C3)c2Cl)nn2c(C#N)cnc12 (stereo in doubt) [Example 760, methyl N-[(3S,4R)-1-(2-chloro-5-cyano-3-{[7-cyano-4-(ethylamino)imidazo[2,1-f][1,2,4]triazin-2-yl]amino}phenyl)-3-[(2-hydroxy-2-methylpropyl)amino]piperidin-4-yl] carbamate] | 8.92
CN[C@@H]1CCC[C@H](c2cc(C#N)cc(Nc3nc(NC4CC4)c4ncc(C#N)n4n3)c2Cl)C1 [Example 727, 2-({2-chloro-5-cyano-3-[(1S,3R)-3-(methylamino)cyclohexyl]phenyl}amino)-4-(cyclopropylamino)imidazo [2,1-f][1,2,4]triazine-7-carbonitrile] | 8.91
COCC(=O)N1CC(N2CCN(c3cc(C#N)cc(Nc4nc(NC5CC5)c5ncc(C#N)n5n4)c3Cl)CC2)C1 [Example 497, 2-[(2-chloro-5-cyano-3-{4-[1-(2-methoxyacetyl)azetidin-3-yl]piperazin-1-yl}phenyl)amino]-4-(cyclopropylamino)imidazo[2,1-f][1,2,4]triazine-7-carbonitrile] | 9.09
CCNc1nc(Nc2ccc3c(c2)c(C#N)cn3C2CCN(C3CN(C(=O)OC(C)(C)C)C3)CC2)nn2c(C#N)cnc12 [Example 831, tert-butyl 3-(4-(3-cyano-5-((7-cyano-4-(ethylamino)imidazo[2,1-f][1,2,4]triazin-2-yl)amino)-1H-indol-1-yl)piperidin-1-yl)azetidine-1-carboxylate] | 9.15
CCNc1nc(Nc2ccc3c(c2)c(C#N)cn3C2CCN(C3CN(C[C@@H](C)O)C3)CC2)nn2c(C#N)cnc12 [Example 833, (R)-2-((3-cyano-1-(1-(1-(2-hydroxypropyl)azetidin-3-yl)piperidin-4-yl)-1H-indol-5-yl)amino)-4-(ethylamino)imidazo[2,1-f][1,2,4]triazine-7-carbonitrile] | 8.74
CC(Cc1cc(Cl)c(Nc2nc(NC3CC3)c3ncc(C#N)n3n2)cc1C#N)CN1CCOCC1 (stereo not shown) [Example 721, 2-({2-chloro-5-cyano-4-[2-(morpholin-4-ylmethyl)propyl]phenyl}amino)-4-(cyclopropylamino)imidazo [2,1-f][1,2,4]triazine-7-carbonitrile] | 8.87
N#Cc1cc(Nc2nc(NC3CC3)c3ncc(C#N)n3n2)c(Cl)c(N2CCN(C3CN(C(=O)C4(N)CC4)C3)CC2)c1 [Example 500, 2-[(3-{4-[1-(1-aminocyclopropanecarbonyl)azetidin-3-yl]piperazin-1-yl}-2-chloro-5-cyanophenyl)amino]-4-(cyclopropylamino)imidazo[2,1-f][1,2,4]triazine-7-carbonitrile] | 8.41
CC(=O)N1CC(N2CCC(O)(c3cc(C#N)cc(Nc4nc(NC5CC5)c5ncc(C#N)n5n4)c3Cl)CC2)C1 [Example 650, 2-((3-(1-(1-acetylazetidin-3-yl)-4-hydroxypiperidin-4-yl)-2-chloro-5-cyanophenyl)amino)-4-(cyclopropylamino)imidazo[2,1-f][1,2,4]triazine-7-carbonitrile] | 8.96
N#Cc1cc(Nc2nc(NC3CC3)c3ncc(C#N)n3n2)c(Cl)c(N2CCC3(CC2)COC3)c1 [Example 48, 2-((2-chloro-5-cyano-3-(2-oxa-7-azaspiro[3.5]non-7-yl)phenyl)amino)-4-(cyclopropylamino)imidazo [2,1-f][1,2,4]triazine-7-carbonitrile] | 9.15
CC(CCO)c1cc(C#N)cc(Nc2nc(NC3CC3)c3ncc(C#N)n3n2)c1Cl (stereo not shown) [Example 574, 2-((2-chloro-5-cyano-3-(4-hydroxybutan-2-yl)phenyl)amino)-4-(cyclopropylamino)imidazo[2,1-f][1,2,4]triazine-7-carbonitrile] | 9.36
